Assay results published in US9127040B2, “Regulation of sodium channels by PLUNC proteins” (The University of North Carolina at Chapel Hill, priority 2011, dated 2015).
Entries after “also recorded” stand apart in the source; their conditions may differ. Ends that are not written are not given here.

Key:
αβγENaC [1] = biological target: T1, αβγENaC (Rattus norvegicus, UniProt P37089+P37090+P37091); assay: Amiloride-sensitive whole cell current, two electrode voltage clamp, Xenopus laevis oocytes expressing αβγENaC; type: cell-based
T1 construct: expressed in transfected cells; host or cells: Xenopus laevis oocytes (cRNA injection)
T1 sequence (P37089 1-698): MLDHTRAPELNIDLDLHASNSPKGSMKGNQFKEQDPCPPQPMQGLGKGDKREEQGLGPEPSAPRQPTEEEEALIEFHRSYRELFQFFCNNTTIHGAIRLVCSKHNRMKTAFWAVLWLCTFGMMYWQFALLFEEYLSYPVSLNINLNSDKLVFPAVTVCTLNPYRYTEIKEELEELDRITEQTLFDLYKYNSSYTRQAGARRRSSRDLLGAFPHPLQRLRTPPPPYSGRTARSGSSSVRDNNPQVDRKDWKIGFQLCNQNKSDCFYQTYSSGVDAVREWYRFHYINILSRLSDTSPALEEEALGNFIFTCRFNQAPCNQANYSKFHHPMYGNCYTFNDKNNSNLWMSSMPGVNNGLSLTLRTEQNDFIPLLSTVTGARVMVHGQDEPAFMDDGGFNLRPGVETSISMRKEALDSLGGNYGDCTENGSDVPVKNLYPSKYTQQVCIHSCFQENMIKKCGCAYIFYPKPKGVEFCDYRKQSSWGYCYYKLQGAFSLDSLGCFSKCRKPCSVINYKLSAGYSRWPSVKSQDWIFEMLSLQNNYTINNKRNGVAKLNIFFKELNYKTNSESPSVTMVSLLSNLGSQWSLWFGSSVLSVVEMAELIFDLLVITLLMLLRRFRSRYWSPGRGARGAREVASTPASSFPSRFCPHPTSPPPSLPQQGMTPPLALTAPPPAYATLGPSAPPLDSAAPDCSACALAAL
T1 sequence (P37090 1-638): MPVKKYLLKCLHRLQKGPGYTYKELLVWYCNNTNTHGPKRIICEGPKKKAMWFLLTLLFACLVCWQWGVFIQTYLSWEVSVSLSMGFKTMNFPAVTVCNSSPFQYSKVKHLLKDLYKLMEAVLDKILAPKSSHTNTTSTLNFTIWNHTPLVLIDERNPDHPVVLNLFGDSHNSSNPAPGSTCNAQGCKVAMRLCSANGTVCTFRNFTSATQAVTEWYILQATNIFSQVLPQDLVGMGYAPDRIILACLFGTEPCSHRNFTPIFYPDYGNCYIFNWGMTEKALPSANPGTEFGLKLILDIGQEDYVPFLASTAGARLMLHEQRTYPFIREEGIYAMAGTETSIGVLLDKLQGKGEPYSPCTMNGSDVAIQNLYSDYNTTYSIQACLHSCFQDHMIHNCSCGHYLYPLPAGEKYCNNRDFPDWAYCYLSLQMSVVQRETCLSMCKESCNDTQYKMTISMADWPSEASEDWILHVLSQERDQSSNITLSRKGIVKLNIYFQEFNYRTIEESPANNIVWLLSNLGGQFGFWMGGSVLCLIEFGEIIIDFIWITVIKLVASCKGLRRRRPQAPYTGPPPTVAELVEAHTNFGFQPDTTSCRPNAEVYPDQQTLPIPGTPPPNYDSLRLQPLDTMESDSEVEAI
T1 sequence (P37091 1-650): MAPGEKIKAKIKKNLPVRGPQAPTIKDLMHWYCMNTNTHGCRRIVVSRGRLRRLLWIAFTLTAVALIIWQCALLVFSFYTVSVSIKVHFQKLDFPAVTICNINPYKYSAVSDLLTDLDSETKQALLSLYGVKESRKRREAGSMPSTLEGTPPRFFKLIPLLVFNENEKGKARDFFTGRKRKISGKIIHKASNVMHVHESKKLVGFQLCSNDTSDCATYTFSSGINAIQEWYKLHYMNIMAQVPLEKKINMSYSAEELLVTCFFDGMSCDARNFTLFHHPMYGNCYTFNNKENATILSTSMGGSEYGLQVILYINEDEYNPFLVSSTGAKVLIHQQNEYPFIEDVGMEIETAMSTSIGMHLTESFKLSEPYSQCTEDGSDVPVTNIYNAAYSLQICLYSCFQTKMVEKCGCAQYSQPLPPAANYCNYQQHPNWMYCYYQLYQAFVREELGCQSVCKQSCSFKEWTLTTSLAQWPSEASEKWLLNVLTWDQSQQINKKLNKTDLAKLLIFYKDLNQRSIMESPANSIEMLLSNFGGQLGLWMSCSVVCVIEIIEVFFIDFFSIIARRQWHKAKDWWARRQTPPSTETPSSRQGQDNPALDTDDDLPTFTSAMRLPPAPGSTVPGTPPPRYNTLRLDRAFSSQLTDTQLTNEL
Procedure: Xenopus laevis oocytes were harvested and injected as described (Donaldson, et al., J. Biol. Chem. 277:8338 (2002)). Defolliculated healthy stage V-VI oocytes were injected with 0.3 ng of CRNA of each ENaC subunit. Injected oocytes were kept in modified Barth's saline (in mM: 88 NaCl, 1 KCl, 2.4 NaHCO3, 0.3 Ca(NO3)2, 0.41 CaCl2, 0.82 MgSO4, and 15 HEPES, adjusted to pH 7.35 with Tris). Oocytes were studied 24 hr after injection using the two electrode voltage clamp technique as previously described (Donaldson, et al., J. Biol. Chem. 277:8338 (2002)). Oocytes were clamped at a holding potential of −60 mV. The change in amiloride-sensitive whole cell current as an indicator of ENaC activity was determined by subtracting the corresponding current value measured in the presence of 10 μM amiloride from that measured before the application of amiloride. Where appropriate, oocytes were incubated with G22-A39 or ABC for 1 h prior to recording. In some experiments β-ENaC^S518C was used which forms ENaCs that are locked into an open probability near 1.0 by exposure to the sulthydral reactive reagent [2-(Trimethyl-ammonium)ethyl]methanethiosulphonate bromide (MTSET). MTSET was added at a concentration of 1 mM to the oocyte bath as previously described (Snyder, J. Clin. Invest. 105: 45 (2000)).

αβγENaC [2] = biological target: T1, αβγENaC; assay: as above; type: cell-based; settings: 100 μM in bath for 2 h; pH 6 vs 7.4

| Molecule | inhibition of ENaC current by peptide in bath (αβγENaC [1]; 10 μM in oocyte bath for 1 h) | effect of N-terminal biotinylation on ability to inhibit ENaC (αβγENaC [1]; n=6) | inhibition of amiloride-sensitive ENaC current at pH 6 (αβγENaC [2]) | ASL absorption (CF HBECs; 10 μM apical, over 24 h) | CF ASL absorption, paired cultures (CF HBECs; 100 μM SPLUNC1 or S18) | IC50 (CF HBECs; 8 h) | CF ASL hyperabsorption in the presence of activated neutrophil supernatant (CF HBECs; 8 h ASL height, ANS) | CF ASL hyperabsorption in the presence of neutrophil elastase (CF HBECs; 8 h ASL height, neutrophil elastase) | heat stability: inhibition of CF ASL absorption after heating (CF HBECs; peptide heated to 67° C. for 30 min, also with neutrophil elastase) | activation of ENaC currents by prostasin (CAP1) and CAP2 (αβγENaC [1]; SPLUNC1 co-expressed) | trypsin stimulation of ENaC activity (αβγENaC [1]; SPLUNC1 co-expressed) | inhibition of ENaC by C-terminal truncation mutants (αβγENaC [1]; co-expressed in oocytes, all p<0.0001 where significant) | CF ASL volume homeostasis in SPLUNC1 knockdown CF HBECs (CF HBECs; recombinant SPLUNC1 together with POPSO-Ringer) |
| --- | --- | --- | --- | --- | --- | --- | --- | --- | --- | --- | --- | --- | --- |
| GGLPVPLDQTLPLNVNPA [S18] | inhibited ENaC to the same degree as the full length protein; also recorded: inhibits both basal and trypsin-stimulated ENaC current | no effect | still inhibits ENaC | significantly blocked ASL absorption | inhibited CF ASL absorption | 600 nM | prevented CF ASL hyperabsorption | prevented CF ASL hyperabsorption | no effect on the ability of S18 to inhibit CF ASL absorption | – | – | – | – |
| SPLUNC1: human SPLUNC1 (SEQ ID NO:1), 256 amino acid secreted PLUNC family protein; rSPLUNC1 is the purified V5/6His-tagged recombinant form (protein, listed as Homo sapiens, V5/6His tag in recombinant form, rSPLUNC1 is the purified V5/6His-tagged recombinant form) MFQTGGLIVFYGLLAQTMAQFGGLPVPLDQTLPLNVNPALPLSPTGLAGSLTNALSNGLLSGGLLGILENLPLLDILKPGGGTSGGLLGGLLGKVTSVIPGLNNIIDIKVTDPQLLELGLVQSPDGHRLYVTIPLGIKLQVNTPLVGASLLRLAVKLDITAEILAVRDKQERIHLVLGDCTHSPGSLQISLLDGLGPLPIQGLLDSLTGILNKVLPELVQGNVCPLVNEVLRGLDITLVHDIVNMLIHGLQFVIKV | – | – | abolished at pH 6 | – | – | – | – | – | – | significantly reduced | attenuated | Significant inhibition | required to restore CF ASL volume homeostasis |
